Test results taken from patent US20240391932A1, “COMPOUNDS, COMPOSITIONS AND METHODS” (Nico Therapeutics, Inc., priority 2021, published 2024).

Test system: NLRP3
Experiment: IL-1β secretion assay in PMA-differentiated, LPS/nigericin-stimulated THP-1 cells (ELISA)
Assay type: cell-based
Conditions: Homo sapiens, 25 ng/mL LPS, nigericin
Method: Compounds as provided herein were tested in the following assay. Cell culture medium employed contained RPMI 1640 medium (89%), FBS (10%), Pen/Strep (1%), and 2-mercaptoethanol (0.05 mM). Freezing medium was made up of 90% FBS and 10% DMSO. THP-1 cells were removed from the liquid nitrogen and placed into a 37° C. water bath to thaw, until signs of ice dissipated. The cells were then added to 9 mL of warm cell culture medium and centrifuged for 5 minutes at 1000 rpm. The supernatant was discarded, and the cells were resuspended in new cell culture medium. THP-1 cells were then split and cultured in the cell culture medium, being passaged every 2-3 days with the cell density will be maintained between 5×10^5 and 1.5×10^6 viable cells/mL.
PMA was dissolved in DMSO to make a stock solution at 5 mg/ml and stored in 10 μl aliquots at −20° C. for single use. PMA is added to normal growth medium. LPS was diluted with 1 mL of water solution to provide a 1 mg/mL stock solution and stored in 15 μl aliquots at −20° C. for single use. Nigericin is diluted in ice cold 100% ethanol to 5 mg/ml (6.7 mM) and stored in 75 μL aliquots at −20° C. for single use. Serum-free media contains RPMI 1640 medium (99%), Pen/Strep (1%), and 2-mercaptoethanol (0.05 mM). The two control conditions used to qualify and normalize test compound dose-response curves were as follows: High Control=25 ng/mL LPS, 5 μM Nigericin, 0.5% DMSO, Low Control=25 ng/ml, LPS, 0.5% DMSO.
THP-1 cells were diluted to provide a suspension at a concentration of 1.0×10^6 cells/mL with the total volume of suspension required to enable the desired number of assay plates. The growth media was supplemented with PMA (5 ng/mL final concentration) and the cells were incubated at 37° C. under a humidified atmosphere of 5% CO2 for 40 h.
All media was carefully aspirated from each culture flask. The cells were washed carefully with 1× DPBS. The cells were then briefly digested with trypsin LE for 5 minutes at 23° C. and immediately resuspended in cell growth media. After resuspension, the cells were centrifuged at 1000 rpm for 3 minutes and the supernatant was discarded. The cells were resuspended in DPBS and once again centrifuged at 1000 rpm for 5 minutes. The supernatant was discarded and the cell pellet was resuspended in serum-free media supplemented with LPS (25 ng/mL final concentration) to enable the distribution of 30K THP-1 cells within 45 μL of media into each well of 384-well PDL-coated plates. The 384-well plates were then incubated at 37° C. under a humidified atmosphere of 5% CO2 for 2 h. Following this period, test compounds were dispensed by Tecan across the desired concentration range with all wells normalized to a final 0.5% DMSO concentration. The plates were then then incubated at 37° C. under a humidified atmosphere of 5% CO2 for 1 h. Following this period, 5 μL of the 5 mg/mL nigericin stock solution was added to each of the appropriate wells and plates were centrifuged at 1000 rpm for 30 seconds. The plates were the immediately reintroduced to the incubator at 37° C. under a humidified atmosphere of 5% CO2 for 2 h. After this time, 35 μL/well of supernatant was collected and transferred into v-bottom plate and centrifuged at 1000 rpm for 1 minute. These supernatant aliquots were analyzed using an IL-Iβ detection kit as described below. If needed, the test samples could be snap frozen and stored at −80° C. until analyzed.
To prepare each ELISA plate, capture antibody (mAb Mt175) was diluted with PBS to a final concentration of 2 μg/mL and then 20 μL of this solution was added to each well of the ELISA plate. Each plate was allowed to incubate overnight at 4° C. The next day, the capture antibody solution was removed and discarded. Each ELISA plate was washed 4 times with PBST followed by the addition of 25 uL/well of blocking buffer (Licor-927-40010) supplemented with 0.1% Tween 20. Each ELISA plate was then allowed to incubate for 1 hour at 23° C. […]

| Structure (SMILES) | IC50 | IC50 (class symbol) |
| --- | --- | --- |
| CC1(O)CC(NC(=O)Cn2nc(C(F)F)n3c(cc4sccc43)c2=O)C1 (stereo not drawn) [Example 3, 2-(5-(difluoromethyl)-8-oxothieno[2′,3′:4,5]pyrrolo[1,2-d][1,2,4]triazin-7(8H)-yl)-N-(3-cis-hydroxy-3-methylcyclobutyl)acetamide] | 101 nM | < 10000 nM |
| O=C(Cn1nc(CF)n2c(cc3sccc32)c1=O)Nc1ncc(F)cn1 [Example 5, 2-(5-(fluoromethyl)-8-oxothieno[2′,3′:4,5]pyrrolo [1,2-d][1,2,4]triazin-7(8H)-yl)-N-(5-fluoropyrimidin-2-yl)acetamide] | 94 nM | < 10000 nM |
| O=C(Cn1nc(C(F)F)n2c(cc3scnc32)c1=O)Nc1ncc(F)cn1 [Example 6, 2-(5-(difluoromethyl)-8-oxothiazolo[5′,4′:4,5]pyrrolo[1,2-d][1,2,4]triazin-7(8H)-yl)-N-(5-fluoropyrimidin-2-yl)acetamide] | 149 nM | < 10000 nM |

Next, values leading:

| IC50 | IC50 (class symbol) | Structure (SMILES) |
| --- | --- | --- |
| 162 nM | < 10000 nM | O=C(Cn1nc(C(F)F)n2c(cc3sccc32)c1=O)Nc1ncc(F)cn1 [Example 1, 2-(5-(difluoromethyl)-8-oxothieno[2′,3′:4,5]pyrrolo[1,2-d][1,2,4]triazin-7(8H)-yl)-N-(5-fluoropyrimidin-2-yl)acetamide] |
| 341 nM | < 10000 nM | O=C(Cn1nc(C(F)F)n2c(cc3sccc32)c1=O)Nc1ncccn1 [Example 2, 2-(5-(difluoromethyl)-8-oxothieno[2′,3′:4,5]pyrrolo[1,2-d][1,2,4]triazin-7(8H)-yl)-N-(pyrimidin-2-yl)acetamide] |
| 252 nM | < 10000 nM | N#Cc1cnc(NC(=O)Cn2nc(C(F)F)n3c(cc4sccc43)c2=O)c(F)c1 [Example 4, N-(5-cyano-3-fluoropyridin-2-yl)-2-[12-(difluoromethyl)-9-oxo-5-thia-1,10,11-triazatricyclo[6.4.0.02,6]dodeca-2(6),3,7,11-tetraen-10-yl]acetamide] |
